The values that follow come from patent US9521845B2, “Beta-lactones as antibacterial agents” (LUDWIG-MAXIMILIANS-UNIVERSITÄT-MÜNCHEN, priority 2008, dated 2016).

Data set [1] has as its system LLO haemolytic activity of L. monocytogenes EGDe. Kind of data set: LLO haemolytic activity testing of culture supernatants. As to conditions: Listeria monocytogenes, Erythrocyte; cultures grown 16 h with lactone, sheep red blood cells; read-out: EC50 of reduction of LLO haemolytic activity. It counts as cell-based, Listeria monocytogenes EGDe. As for the experimental part: Overnight cultures of L. monocytogenes EGDe were harvested by centrifugation and resuspended in an equal volume of fresh BHB medium. In 1.5 mL Eppendorf tubes, 400 μL of BHB medium were inoculated with 4 μL of the resuspended Listeria culture and 4 μL of a corresponding beta-lactone stock in DMSO. The final concentrations were 800 μM, 400 μM, 200 μM, 100 μM and DMSO as control. The amount of DMSO in all tests was 1% of the medium. After mixing, the test tubes were incubated under continuous shaking at 200 rpm at 37° C. for 16 h. Then, cells were centrifuged and the supernatants filtered sterile by passing them through a 0.2 μm pore size filter. Haemolytic activity of LLO in the culture supernatants was quantitatively investigated according to a method described in J. Food Safety 1998, 18: 197-203 (incorporated herein by reference) with some modifications. In Nunclon™ 96-well plates with round shaped wells 100 μL of serial dilutions of the supernatants in PBS were added per well and incubated with 100 μL of 3% SRBC (sheep red blood cells) resuspended in PBS for 15 min at 37° C. under gentle shaking. The 96-well plates were centrifuged at 600 rpm for 5 min and the minimum dilution at which intact blood cells began to form a pellet was recorded. Controls with no lactone were set 100%. Buffer only controls and pure BHB medium yielded no haemolysis.

The subject of data set [2] is HeLa cells. Kind of data set: Cytotoxicity, WST-1 cell proliferation test. The data set is classed as cell-based. As to conditions: up to a concentration of 1 mM (300 mg/L), 24 h. The method, then: Cytotoxicity was determined in HeLa cells using the WST-1 cell proliferation test. Trypsinated cells were seeded at 100 μL aliquots with antibiotic free medium in Nunclon™ flat-bottom 96-well plates with 1·10^4 cells per well. After incubation of HeLa cells for 24 h, the medium was replaced by antibiotic free test medium containing 1 mM, 100 μM and 10 μM beta-lactone U1, DMSO as non-toxic control and 1% Triton X-100 as 100% lethal control. The DMSO content in all tests was kept at 1%. HeLa cells with test medium were incubated for 24 h, then 10 μL WST-1 reagent were added and after 30 min incubation absorption at 450 nm was read with 630 nm reference wavelength using a TECAN GENios Pro microplate reader.
On the technique in general: Formazan colour is commonly taken as a measure of viable cells.

For data set [3], the system named is Listeria monocytogenes EGDe in the mouse macrophage-like cell line J774. Kind of data set: Infection of J774 cells and intracellular growth assay. The data set is classed as cell-based. As to conditions: 1 mM, 3 h and 5 h post infection, vs DMSO. The method, then: In a Nunclon™ 96-well plate with flat-bottom 1·10^5 J774 cells per well were seeded in 100 μL 90% DMEM medium with 10% FBS without antibiotics. After 24 h incubation the resulting monolayer was washed once with 100 μL PBS and 100 μL of L. monocytogenes EGDe suspension in 90% DMEM medium with 10% FBS without antibiotics was added either with 1 mM beta-lactone U1 or DMSO. L. monocytogenes was grown in an over night culture with beta-lactone/DMSO and resuspended to approximately 10^6 cells/mL resulting in a multiplicity of infection (MOI) of 0.5. Macrophages were infected for 15 min at 37° C. after 15 min bacterial adherence on ice, as described in Molecular Microbiol. 2000, 35(6): 1286-1294 (incorporated herein by reference). Thereafter, the infected monolayer were washed two times with 100 μL PBS each and fresh 90% DMEM medium with 10% FBS containing 10 μg/mL gentamicin and 1 mM beta-lactone U1 or DMSO was added. After 0, 3 and 5 h post infection, the monolayers were washed again with two times 100 μL PBS and eukaryotic cells lysed by the addition of two times 250 μL of 0.05% solution of Triton X-100 in sterile deionised water. Intracellular bacteria were quantified by colony counting of serial dilutions plated on Listeria-agar (Ottaviani & Agosti Agar, Heipha Diagnostika, Eppelheim, Germany).

Data set [4] deals with T1, S-formylglutathione hydrolase (SFGH) (Escherichia coli, UniProt P51025).
T1 construct: made in house; host or cells: E. coli BL21
Kind of data set: Substrate inhibition assay (p-nitrophenylacetate), IC50 determination. The data set is classed as biochemical. As to conditions: beta-lactone G2; substrate 2.4 mM, enzyme 30 nM; estimated. As for the experimental part: SFGH mediated […] of the p-nitrophenylacetate leads to the release of p-nitrophenol which can be monitored at 400 nm. Various concentrations of beta-lactone G2 were added to a solution containing the substrate (2.4 mM) and enzyme (30 nM). Reactions were started by addition of the enzyme and subsequently monitored for 6 min. The mean average slopes of absorption (out of three independent experiments) versus beta-lactone concentration were plotted and the concentration of 50% inhibition (IC50) was estimated.

Data set [5] deals with lipase (Lip). Kind of data set: ABPP probe dose down in proteome, lipase labeling. It counts as binding. The note with it: L. welshimeri proteome, concentration range 10 μM to 5 nM. The method, then: (§1) To estimate the strength of probe interactions with proteins in the proteome, we compared the reactivity profiles of selected beta-lactones across a broad concentration range from 10 μM to 5 nM.
(§2) Proteome samples were adjusted to a final concentration of 1 mg protein/mL by dilution in PBS prior to probe labeling. Experiments for visualization by 1D SDS-PAGE were carried out in 43 μL total volume and those for affinity enrichment in 1892 μL total volume, such that once CC reagents were added, the total reaction volume was 50 μL and 2 mL, respectively. Reactions were initiated by addition of the probe and allowed to incubate for 60 min at room temperature. For heat controls the proteome was denatured with 1 μL of 43% SDS at 95° C. for 6 min and cooled to room temperature before the probe was applied. Following incubation, reporter tagged-azide reagents (13 μM rhodamine-azide for analytical or 20 μM rhodamine-biotin-azide for preparative scale) were added followed by 1 mM TCEP and 100 μM ligand. Samples were gently vortexed and the cycloaddition initiated by the addition of 1 mM CuSO4. The reactions were incubated at room temperature for 1 h (Speers, J. Amer. Chem. Soc. 125 (2003), 4686).

Data set [6] concerns lipase/acylhydrolase (LipAc). Kind of data set: ABPP probe dose down in proteome, lipase/acylhydrolase labeling. The data set is classed as binding. The note with it: L. welshimeri proteome. As for the experimental part: as §1, §2
Data set [7] deals with T2, Aldehyde dehydrogenase B (ADB) (Escherichia coli, UniProt P37685).
T2 construct: endogenous in cells; host or cells: Escherichia coli K12 lysate, cytosol fraction
Kind of data set: ABPP labeling of E. coli cytosol. It counts as binding. The note with it: 100 nM probe concentration, no other off targets. As for the experimental part: as §1, §2

Data set [8] concerns β-Ketoacyl acyl carrier protein synthase II (KAS II). Kind of data set: ABPP labeling of bacterial proteomes, KAS II. The note with it: 50 μM probe, FIGS. 9A and 9B. The data set is classed as binding, L. welshimeri, B. subtilis. An excerpt: The library of beta-lactones to be tested comprised compounds with aliphatic or aromatic substitutions varying in length and branching. To evaluate the target selectivity, the beta-lactones were screened against several gram-positive and gram-negative bacterial proteomes including Pseudomonas putida, Listeria welshimeri, Bacillus licheniformis, Bacillus subtilis and Escherichia coli, which are phylogenetically related to pathogenic strains. In addition, mouse liver cytosol was included as an eukaryotic reference proteome. Initial labeling experiments were carried out by adding individual probes at 50 μM concentration to the proteome which is sufficient to achieve full saturation of most targets. […] As an example, labeling of L. welshimeri cytosolic and membrane proteomes as well as B. subtilis cytosolic proteome with a subset of the most complementary probes is shown in FIGS. 9A and 9B. […] Most of the targeted proteins were of low abundance as shown by the direct comparison of the relative intensities observed with Coomassie staining vs. fluorescence scanning (FIG. 11).
Proteome samples were adjusted to a final concentration of 1 mg protein/mL by dilution in PBS prior to probe labeling. […]

“Also recorded” adds a separate entry of the source. A value given as a limit tells only on which side of the number the result lay.

T2 sequence (P37685 whole entry): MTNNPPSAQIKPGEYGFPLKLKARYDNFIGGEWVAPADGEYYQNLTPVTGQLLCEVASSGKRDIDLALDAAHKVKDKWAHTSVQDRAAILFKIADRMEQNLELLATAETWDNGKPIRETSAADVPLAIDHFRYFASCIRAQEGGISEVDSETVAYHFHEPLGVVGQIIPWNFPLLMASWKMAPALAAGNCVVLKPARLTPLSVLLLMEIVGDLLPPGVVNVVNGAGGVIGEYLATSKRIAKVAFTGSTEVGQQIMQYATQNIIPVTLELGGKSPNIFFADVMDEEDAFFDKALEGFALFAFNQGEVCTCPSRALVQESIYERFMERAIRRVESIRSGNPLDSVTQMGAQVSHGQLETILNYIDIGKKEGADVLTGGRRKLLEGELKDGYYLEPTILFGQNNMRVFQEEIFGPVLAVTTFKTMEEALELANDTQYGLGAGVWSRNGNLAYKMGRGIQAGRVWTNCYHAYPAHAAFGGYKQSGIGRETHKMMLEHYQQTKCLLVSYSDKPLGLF
T1 sequence (P51025 whole entry): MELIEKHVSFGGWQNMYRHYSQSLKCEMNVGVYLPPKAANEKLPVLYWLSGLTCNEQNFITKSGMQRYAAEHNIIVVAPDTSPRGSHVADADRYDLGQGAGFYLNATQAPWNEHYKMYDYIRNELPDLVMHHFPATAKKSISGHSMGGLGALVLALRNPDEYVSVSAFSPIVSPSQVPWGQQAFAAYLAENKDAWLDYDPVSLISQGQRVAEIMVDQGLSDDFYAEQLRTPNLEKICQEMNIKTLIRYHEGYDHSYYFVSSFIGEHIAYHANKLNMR

As to `C=CCCCCCCCC1C(=O)OC1CCc1ccccc1` (centres unmarked) [U1], the 50% effective concentration (EC50) (usually the midpoint of the concentration-response curve) in data set [1] was less than 100 µM. Besides, the “cytotoxicity to HeLa cells” value in data set [2] is “non-cytotoxic; also recorded: Neither microscopic alterations of cell morphology nor significant inhibition of cell proliferation”. Further, in data set [3], the “lower growth in the eukaryotic cells” value is recorded as “approximately 76%”.

For the compound `C#CCCCC1OC(=O)C1CCCC` (stereo not drawn) [G2, trans-3-butyl-4-(4-pentyn-1-yl)oxetan-2-one], in data set [4], the IC50 (usually the concentration that gives 50% inhibition) was 5 µM. For the same compound, the “probe concentration down to which lipase is labeled” value in data set [5] is 20 nM. Also, in data set [6], the “interaction with lipase/acylhydrolase (LipAc)” value is recorded as “does not exhibit strong interaction”. In addition, the ADB labeling preference result in data set [7] is “strong preference”. In addition, in data set [8], the “KAS II labeling” value is listed as “labeled”.
